Reference: ChEMBL document CHEMBL1135462, “Novel selective phosphodiesterase (PDE4) inhibitors. 4. Resolution, absolute configuration, and PDE4 inhibitory activity of cis-tetra- and cis-hexahydrophthalazinones” (J Med Chem, 2002)

Key:
Phosphodiesterase 4 = Phosphodiesterase 4 (Homo sapiens, UniProt P27815+Q08499+Q07343+Q08493); test: Inhibitory activity against phosphodiesterase 4 carried out in the cytosol of human neutrophils; type: protein assay
Mus musculus = test: Percent inhibition of arachidonic acid induced mouse ear edema after 30 uM/kg peroral pretreatment; type: functional

| SMILES | Log IC50 (Phosphodiesterase 4) | Inhibition (Mus musculus) |
| --- | --- | --- |
| COc1ccc(C2=NNC(=O)[C@H]3CC=CC[C@@H]23)cc1OC | -6.1 |  |
| COc1ccc(C2=NNC(=O)[C@H]3CC=CC[C@@H]23)c2c1OC1(CCCC1)C2 | -6.6 |  |
| COc1ccc(C2=NNC(=O)C3CC=CCC23)cc1OC1CCCC1 (centres undefined) | -7.1 |  |
| CCOc1ccc(C2=NN(c3ccc(C(=O)O)cc3)C(=O)[C@@H]3CC=CC[C@H]23)cc1OCC | -8.3 | 47% |
| COc1ccc(C2=NNC(=O)[C@@H]3CC=CC[C@H]23)c2c1OC1(CCCC1)C2 | -8.5 |  |
| COc1ccc(C2=NNC(=O)[C@H]3CCCC[C@@H]23)c2c1OC1(CCCC1)C2 | -5.6 |  |
| COc1ccc(C2=NNC(=O)[C@H]3CCCC[C@@H]23)cc1OC1CCCC1 | -5.8 |  |
| COc1ccc(C2=NNC(=O)C3CCCCC23)cc1OC (centres undefined) | -6.4 |  |
| COc1ccc(C2=NNC(=O)[C@H]3CC=CC[C@@H]23)cc1OC1CCCC1 | -6.7 |  |
| COc1ccc(C2=NNC(=O)[C@H]3CCCC[C@@H]23)cc1OC | -5.1 |  |
| COc1ccc(C2=NNC(=O)C3CCCCC23)cc1OC1CCCC1 (centres undefined) | -6.8 |  |
| COc1ccc(C2=NNC(=O)[C@@H]3CCCC[C@H]23)c2c1OC1(CCCC1)C2 | -7.8 |  |
| CCOC(=O)c1ccc(N2N=C(c3ccc(OCC)c(OCC)c3)[C@H]3CC=CC[C@H]3C2=O)cc1 | -8.2 | 27% |
| COc1ccc(C2=NNC(=O)C3CC=CCC23)cc1OC (racemic) | -7 |  |
| COc1ccc(C2=NNC(=O)C3CCCCC23)c2c1OC1(CCCC1)C2 (racemic) | -7.3 |  |
| COc1ccc(C2=NN(C3C4CC5CC(C4)CC3C5)C(=O)C3CC=CCC23)cc1OC (racemic) | -9.2 | 51% |
| CCOC(=O)c1ccc(N2N=C(c3ccc(OCC)c(OCC)c3)C3CC=CCC3C2=O)cc1 (racemic) | -8 |  |
| COc1ccc(C2=NNC(=O)C3CC=CCC23)c2c1OC1(CCCC1)C2 (racemic) | -8 |  |
| CCOc1ccc(C2=NN(c3ccc(C(=O)O)cc3)C(=O)C3CC=CCC23)cc1OCC (racemic) | -7.7 | 48% |
| COc1ccc(C2=NNC(=O)[C@@H]3CCCC[C@H]23)cc1OC1CCCC1 (relative stereo) | -7.1 |  |
| COc1ccc(C2=NNC(=O)[C@@H]3CC=CC[C@H]23)cc1OC (relative stereo) | -7.3 |  |
| COc1ccc(C2=NNC(=O)[C@@H]3CCCC[C@H]23)cc1OC (relative stereo) | -6.9 |  |
| COc1ccc(C2=NNC(=O)[C@@H]3CC=CC[C@H]23)cc1OC1CCCC1 (relative stereo) | -7.4 |  |
| COc1ccc(C2=NN(C3C4CC5CC(C4)CC3C5)C(=O)[C@@H]3CC=CC[C@H]23)cc1OC (single isomer, unassigned; (+)) | -9.3 | 49% |
| COc1ccc(C2=NN(C3C4CC5CC(C4)CC3C5)C(=O)[C@H]3CC=CC[C@@H]23)cc1OC (single isomer, unassigned; (-)) | -6.9 |  |
| COc1ccc(C2CNC(=O)C2)cc1OC1CCCC1 (single isomer, unassigned; (-)) [ROLIPRAM] |  | 55% |
| COc1ccc([C@H](Cc2ccncc2)c2ccccc2)cc1OC1CCCC1 [CDP840] | -7.7 | 48% |
| COc1ccc([C@]2(C#N)CC[C@@H](C(=O)O)CC2)cc1OC1CCCC1 [CILOMILAST] |  | 33% |
